In patent US11685766B2, “14-3-3 targeting peptides for cancer treatment” (Creighton University, priority 2019, dated 2023):
Values joined by “and” are separate entries in the source; they are usually repeats but may differ in a detail not shown here. Identical values can stand only once. Like-named read-outs stand apart in the source and are kept apart here. Peptide text beside a SMILES is read from it.

Experiments:
SCC12B.2 cells [1] = type: cell-based, human
Method: Human skin cancer cell lines (SCC12B.2, SCC13, SRB12) were maintained in Dulbecco's modified Eagle's medium (DMEM) (Invitrogen, Carlsbad, Calif., USA) supplemented with 1% penicillin (10 000 U/ml)-streptomycin (10 000 μg/ml) (PenStrep) (Invitrogen) and 10% fetal bovine serum (Gemini Bio-Products, Sacramento, Calif., USA) at 37° C. and 5% CO2. Normal human epidermal keratinocytes (nHEK) (Thermo Scientific, Waltham, Mass., USA) isolated from neonatal foreskin were cultured in EpiLife medium (Invitrogen) supplemented with human keratinocyte growth supplement (Invitrogen) and 1% PenStrep (Invitrogen). Cells were transfected with control pcDNA or pcDNA3.1-HA-14-3-3ε (Addgene plasmid #48797; http://n2t.net/addgene:48797; RRID:Addgene_48797) using Lipofectamine/Plus reagents (Life Technologies, Carlsbad, Calif., USA) or with siRNA targeting 14-3-3ε (Dharmacon, Lafayette, Colo., USA), 14-3-3γ (Dharmacon), 14-3-3ζ, (Dharmacon), Survivin (Cell Signaling, Danvers, Mass., USA), Akt (Dharmacon) or control siRNA (Santa Cruz Biotechnology, Dallas, Tex., USA) using siQuest transfection reagents (Mirus Bio, Madison, Wis., USA) or treated with Akt inhibitor GSK690693 (Tocris Bioscience, Bristol, United Kingdom) or cell cycle inhibitor 5-Fluorouracil (5-FU) (Thermo Fisher) resuspended in DMSO.
To determine the half maximal inhibitory concentration (IC50) for ES1P2 in SCC12B.2 and nHEK cells, cells were plated in a 96-well plate at a density of 6×10^3 cells/well. Twenty-four hours after plating, cells were treated with increasing concentrations of ES1P2 (0-75 μM) in Opti MEM medium supplemented with reduced serum (Invitrogen) for 4 consecutive days. ES1P2 peptide was resuspended fresh, daily in 25 mM Tris buffer (pH 7.5). Neutral Red Cell Viability assays were performed, where absorbance was measured using a Cytation 5 multi-mode plate reader (BioTek). The experiment was repeated three separate times with 4 replicate wells per experiment to obtain an average IC50 value.
Carcinoma human cell lines (SCC12B.2 and SCC13) were maintained in Dulbecco's modified Eagle's medium (DMEM) (Invitrogen, Carlsbad, Calif., USA) supplemented with 1% penicillin (10 000 U/ml)-streptomycin (10 000 μg/ml) (PenStrep) (Invitrogen) and 10% fetal bovine serum (Gemini Bio-Products, Sacramento, Calif., USA) at 37° C. and 5% CO2. Primary normal human epidermal keratinocytes (nHEK) (Thermo Fisher Scientific, Waltham, Mass., USA) isolated from neonatal foreskin were maintained in EpiLife medium (Invitrogen) supplemented with human keratinocyte growth supplement (HKGS) and 1% PenStrep. nHEK cells were not passaged more than twice before experiments. Cells were treated with CDC25A inhibitor NSC663284 (Tocris Bioscience, Bristol, United Kingdom) suspended in DMSO, transfected with wild type CDC25A or control plasmid using Lipofectamine/Plus transfection reagents (Life Technologies, Carlsbad, Calif., USA) or transfected with siRNA targeting 14-3-3 ε or control siRNA (Santa Cruz Biotechnology, Dallas, Tex., USA) using siQuest transfection reagents (Mirus Bio, Madison, Wis., USA).
To determine the half maximal inhibitory concentration (IC50) for pS and pT in SCC12B.2 cells, cells were plated in a 96-well plate at a density of 6×10^3 cells/well. […] Neutral Red Cell Viability assays were performed, where absorbance was measured using a Cytation 5 multi-mode plate reader (BioTek). […]

SCC12B.2 cells [2] = test: Caspase-3/7 Glo assay (apoptosis); type: cell-based, human; settings: ES1P2 20 μM; pS 30 μM; pT 20 μM, 24 hours; vs vehicle
Method: Apoptosis was assessed using a Caspase-3/7 Glo assay (Promega Corporation, Madison, Wis., USA) in a 96-well white-bottom plate (BRANDplates, Wertheim, Germany) according to the manufacturer's instructions. Cells were seeded at a density of 8×10^3 cells/well and incubated overnight before treatments or transfections. Luminescence was read using a Cytation 5 multi-mode plate reader (BioTek Instruments, Winooski, Vt., USA).
Apoptosis was assessed using a Caspase-3/7 Glo assay (Promega) in a 96-well white-bottom plate (BRANDplates, Wertheim, Germany). Cells were seeded at a density of 8×10^3 cells/well and Caspase-3/7 glo was performed 24 hours post-treatment according to the manufacturer's instructions and read using a Cytation 5 multi-mode plate reader (BioTek, Instruments, Winooski, Vt., USA).

For `CC(=O)N[C@@H](CCCNC(=N)N)C(=O)N[C@H](C(=O)N[C@@H](CCCCN)C(=O)N[C@@H](CO)C(=O)N[C@@H](CCCNC(=N)N)C(=O)N[C@H](C(=O)N[C@@H](Cc1c[nH]c2ccccc12)C(=O)N[C@@H](C)C(=O)NCC(=O)N[C@@H](CCC(=O)O)C(=O)N[C@@H](CCCCN)C(=O)N[C@@H](CO)C(=O)N[C@@H](CCCCN)C(=O)N[C@@H](CCCNC(=N)N)C(N)=O)[C@@H](C)OP(=O)(O)O)[C@@H](C)O` [pT, Ac-Arg-Thr-Lys-Ser-Arg-Thr(PO3^2−)-Trp-Ala-Gly-Glu-Lys-Ser-Lys-Arg-NH2] (HELM PEPTIDE1{[ac].R.T.K.S.R.[C[C@@H](OP(=O)(O)O)[C@H](N[*:1])C(=O)[*:2]].W.A.G.E.K.S.K.R.[am]}$$$$V2.0), the IC50 (SCC12B.2 cells [1]; SCC12B.2 cells, Neutral Red, treated 4 consecutive days, 0-75 μM, read-out: IC50 in SCC cells (cell viability dose response)) was 22.1 µM and 22.6 µM and the “apoptosis of SCC cells (Caspase-3/7)” value (SCC12B.2 cells [2]) was “increased apoptosis”.
For `CSCC[C@H](NC(=O)[C@H](CCCNC(=N)N)NC(=O)[C@@H]1CCCN1C(=O)[C@H](C)NC(=O)[C@H](COP(=O)(O)O)NC(=O)[C@H](CC(N)=O)NC(=O)[C@H](CCC(N)=O)NC(=O)[C@H](CCCNC(=N)N)NC(=O)[C@H](CCC(N)=O)NC(=O)[C@@H](NC(C)=O)[C@@H](C)O)C(=O)N[C@@H](CC(C)C)C(=O)N[C@@H](CO)C(=O)N[C@@H](CO)C(=O)N[C@@H](CC(N)=O)C(N)=O` [pS, Ac-Thr-Gln-Arg-Gln-Asn-Ser-(PO3^2−)-Ala-Pro-Arg-Met-Leu-Ser-Ser-Asn-NH2] (HELM PEPTIDE1{[ac].T.Q.R.Q.N.[O=C([C@H](COP(=O)(O)O)N[*:1])[*:2]].A.P.R.M.L.S.S.N.[am]}$$$$V2.0), the IC50 (SCC12B.2 cells [1]) was 29 µM and the “apoptosis of SCC cells (Caspase-3/7)” value (SCC12B.2 cells [2]) was “increased apoptosis”.
`NCCCC[C@H](NC(=O)[C@H](Cc1c[nH]c2ccccc12)NC(=O)[C@H](Cc1ccc(O)cc1)NC(=O)[C@@H](N)Cc1c[nH]c2ccccc12)C(N)=O` [ES1P2, Trp-Tyr-Trp-Lys-NH2] (H-WYWK-NH2) was tested, and the IC50 (SCC12B.2 cells [1]) was 20.6 µM, the SCC cells alive (SCC12B.2 cells [1]; 20 μM, alone, FIG. 1D) was 62 % alive and the “apoptosis of SCC cells (Caspase-3/7)” value (SCC12B.2 cells [2]) was “increasing apoptosis to a statistically significant degree”.
